Legend:
Experiment in all cases: relative viability (nuclei count vs DMSO), 5 days (fraction); higher = more cells survive
[1] = compound: O=C(O)c1ccc2c(c1)nc(Nc1cccc(Cl)c1)c1ccncc12 [Silmitasertib] + N=C(N)NC(=N)NCCc1ccccc1 [Phenformin] (partner 250 µM)
Procedure, shortened: (§1)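 Five library-drug doses in √10 steps were combined with a fixed anchor-drug dose, or a single drug was given alone, by pin tool to lung cancer cell lines in 1536-well plates the day after seeding. Nuclei were stained and counted after 5 days. Relative viability is the nuclei count in treated wells over that in vehicle wells, taken as the median of duplicate plates.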

[2] = compound: O=C(O)c1ccc2c(c1)nc(Nc1cccc(Cl)c1)c1ccncc12 [Silmitasertib] + Cc1nc(NC(=O)N2CCC[C@H]2C(N)=O)sc1-c1ccnc(C(C)(C)C(F)(F)F)c1 [Alpelisib] (partner 2 µM)
Procedure, shortened: as §1

[3] = compound: O=C(O)c1ccc2c(c1)nc(Nc1cccc(Cl)c1)c1ccncc12 [Silmitasertib] + CS(=O)(=O)CCNCc1ccc(-c2ccc3ncnc(Nc4ccc(OCc5cccc(F)c5)c(Cl)c4)c3c2)o1 [Lapatinib] (partner 2 µM)
Procedure, shortened: as §1

[4] = compound: O=C(O)c1ccc2c(c1)nc(Nc1cccc(Cl)c1)c1ccncc12 [Silmitasertib] + Cc1nc(Nc2ncc(C(=O)Nc3c(C)cccc3Cl)s2)cc(N2CCN(CCO)CC2)n1 [Dasatinib] (partner 0.075 µM)
Procedure, shortened: as §1

[5] = compound: O=C(O)c1ccc2c(c1)nc(Nc1cccc(Cl)c1)c1ccncc12 [Silmitasertib] + CS(=O)(=O)N1CCN(Cc2cc3nc(-c4cccc5[nH]ncc45)nc(N4CCOCC4)c3s2)CC1 [Pictilisib] (partner 1 µM)
Procedure, shortened: as §1

Cell Line | relative viability ([1]; first compound 0.04 µM) | relative viability ([1]; first compound 0.4 µM) | relative viability ([1]; first compound 1.265 µM) | relative viability ([1]; first compound 4 µM) | relative viability ([2]; first compound 0.04 µM) | relative viability ([2]; first compound 0.4 µM) | relative viability ([2]; first compound 1.265 µM) | relative viability ([2]; first compound 4 µM) | relative viability ([3]; first compound 0.04 µM) | relative viability ([3]; first compound 0.4 µM) | relative viability ([3]; first compound 1.265 µM) | relative viability ([3]; first compound 4 µM) | relative viability ([4]; first compound 0.04 µM) | relative viability ([4]; first compound 0.4 µM) | relative viability ([4]; first compound 1.265 µM) | relative viability ([4]; first compound 4 µM) | relative viability ([5]; first compound 0.04 µM) | relative viability ([5]; first compound 0.4 µM) | relative viability ([5]; first compound 1.265 µM) | relative viability ([5]; first compound 4 µM)
RERF-LC-KJ | 0.407 | 0.378 | 0.31 | 0.268 | 0.929 | 0.797 | 0.66 | 0.51 | 0.859 | 0.819 | 0.767 | 0.516 | 0.879 | 0.735 | 0.393 | 0.435 | 0.629 | 0.494 | 0.366 | 0.323
SK-LU-1 | 0.527 | 0.451 | 0.426 | 0.262 | 1.09 | 0.836 | 0.413 | 0.27 | 0.995 | 0.649 | 0.369 | 0.388 | 0.203 | 0.164 | 0.172 | 0.175 | 0.685 | 0.448 | 0.359 | 0.212
SK-MES-1 | 0.752 | 0.582 | 0.434 | 0.27 | 0.87 | 0.896 | 0.788 | 0.446 | 0.442 | 0.594 | 0.536 | 0.429 | 0.47 | 0.283 | 0.294 | 0.232 | 0.412 | 0.439 | 0.456 | 0.373
SW 1573 | 0.465 | 0.319 | 0.336 | 0.387 | 0.758 | 0.588 | 0.723 | 0.504 | 1.1 | 1.07 | 1.11 | 0.67 | 0.624 | 0.516 | 0.576 | 0.451 | 0.561 | 0.459 | 0.462 | 0.484
UMC-11 | 0.336 | 0.319 | 0.341 | 0.286 | 1.03 | 0.994 | 1 | 0.627 | 1.14 | 0.949 | 0.965 | 0.359 | 0.508 | 0.477 | 0.491 | 0.331 | 0.992 | 0.903 | 0.652 | 0.436
